We go through 12 compounds from patent US20250296936A1, “SARS-COV2 MAIN PROTEASE INHIBITORS” (Gilead Sciences, Inc., priority 2024, published 2025).

Structures are written as SMILES.

The test system of the first assay is SARS-CoV-2-NLuc in A549-hACE2 cells. Description: microbe, parasite or virus in culture. The format is cell-based, SARS Coronavirus 2. The note with it: Severe acute respiratory syndrome coronavirus, 48 h, read-out: MPro EC50 (nM).
The term EC50 denotes the midpoint of the concentration-response curve. Take `Cn1ncc2cncc(-n3c(=O)c4oc(-c5ccccc5Cl)cc4n(CC4(C#N)CC4)c3=O)c21` [Example 48]: the EC50 amounted to 8.36 nM.

For `COc1cc(-c2cc3c(o2)c(=O)n(-c2cncc4cnn(C)c24)c(=O)n3CC2(C#N)CC2)c(Cl)cc1F` [Example 49], the half-maximal effective concentration (EC50) was determined as 12.2 nM.

For `N#CC1(Cn2c(=O)n(-c3cncc4ccccc34)c(=O)c3oc(-c4ccccc4Cl)cc32)CC1` [Example 50], the half-maximal effective concentration (EC50) amounted to 6.99 nM.

As for `COc1ccc2cncc(-n3c(=O)c4oc(-c5ccccc5Cl)cc4n(CC4(C#N)CC4)c3=O)c2c1` [Example 51], the 50% effective concentration (EC50) worked out at 12.1 nM.

`N#CC1(Cn2c(=O)n(-c3cncc4ccc(F)cc34)c(=O)c3oc(-c4ccccc4Cl)cc32)CC1` [Example 52]: the half-maximal effective concentration (EC50) amounted to 11.8 nM.

In the case of `Cc1cncc(-n2c(=O)c3oc(-c4ccccc4Cl)cc3n(CC3(C#N)CC3)c2=O)c1` [Example 53], the concentration for a half-maximal effect (EC50) was found to be 12.8 nM.

Take `N#CC1(Cn2c(=O)n(-c3cncc4ccccc34)c(=O)c3oc(-c4ccc(F)cc4Cl)cc32)CC1` [Example 54]: the EC50 turned out to be 18 nM.

With `COc1cc(-c2cc3[nH]c(=O)n(-c4cncc(C)c4)c(=O)c3o2)c(Cl)cc1F` [Example 56], the EC50 stood at 195 nM.

In the case of `COc1cc(-c2cc3c(o2)c(=O)n(-c2cncc(C)c2)c(=O)n3CCC#N)c(Cl)cc1F` [Example 58], the EC50 was 19.9 nM.

Still in this assay, the particulars now being: Severe acute respiratory syndrome coronavirus, 48 h; read-out: MPro EC50.
Regarding `COc1cc(-c2cc3c(o2)c(=O)n(-c2cncc4ccccc24)c(=O)n3CC2(C#N)CC2)c(Cl)cc1F` [Example 47, 1-((6-(2-chloro-4-fluoro-5-methoxyphenyl)-3-(isoquinolin-4-yl)-2,4-dioxo-3,4-dihydrofuro[3,2-d]pyrimidin-1(2H)-yl)methyl)cyclopropane-1-carbonitrile], the EC50 was determined as 29.4 nM.

For the compound `COc1cc(-c2cc3[nH]c(=O)n(-c4cncc5cccnc45)c(=O)c3o2)c(Cl)cc1F` [Example 55, 6-(2-chloro-4-fluoro-5-methoxyphenyl)-3-(1,6-naphthyridin-8-yl)furo[3,2-d]pyrimidine-2,4(1H,3H)-dione], the EC50 stood at 250 nM.

With `COc1cc(-c2cc3c(o2)c(=O)n(-c2cncc4cccnc24)c(=O)n3CCC#N)c(Cl)cc1F` [Example 57, 3-(6-(2-chloro-4-fluoro-5-methoxyphenyl)-3-(1,6-naphthyridin-8-yl)-2,4-dioxo-3,4-dihydrofuro[3,2-d]pyrimidin-1(2H)-yl)propanenitrile], the concentration giving a half-maximal response (EC50) was determined as 19.7 nM.
